Assay results published in PubChem BioAssay (NCI).
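Step 1: Grow cells in 96-well plates. Step 2: Expose to compound for 48 hours at 5 concentrations. Step 3: Interpolate endpoints linearly; if unreached, use highest concentration. GI50 is the concentration that inhibits growth by half. TGI: total growth inhibition.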

Key:
Test in all cases: DTP human tumour cell line panel, 48 h
SR leukemia = test system: SR leukemia
DU-145 prostate = test system: DU-145 prostate
RXF 393 renal = test system: RXF 393 renal
EKVX NSCLC = test system: EKVX NSCLC
OVCAR-8 ovarian = test system: OVCAR-8 ovarian
786-0 renal = test system: 786-0 renal
COLO 205 colon = test system: COLO 205 colon
UO-31 renal = test system: UO-31 renal
NCI-H460 lung = test system: NCI-H460 lung
OVCAR-5 ovarian = test system: OVCAR-5 ovarian
OVCAR-4 ovarian = test system: OVCAR-4 ovarian
HOP-62 NSCLC = test system: HOP-62 NSCLC
SK-MEL-5 melanoma = test system: SK-MEL-5 melanoma
MOLT-4 leukemia = test system: MOLT-4 leukemia
SN12C renal = test system: SN12C renal
HCC-2998 colon = test system: HCC-2998 colon
SF-268 CNS = test system: SF-268 CNS
K-562 leukemia = test system: K-562 leukemia
U251 CNS = test system: U251 CNS
M14 melanoma = test system: M14 melanoma
A549 NSCLC = test system: A549 NSCLC
RPMI-8226 leukemia = test system: RPMI-8226 leukemia
T-47D breast = test system: T-47D breast
HCT-116 colon = test system: HCT-116 colon
SF-295 CNS = test system: SF-295 CNS
SNB-75 CNS = test system: SNB-75 CNS
MDA-MB-231 breast = test system: MDA-MB-231 breast
NCI-H522 lung = test system: NCI-H522 lung
ACHN renal = test system: ACHN renal
MCF7 breast = test system: MCF7 breast
KM12 colon = test system: KM12 colon
BT-549 breast = test system: BT-549 breast
UACC-257 melanoma = test system: UACC-257 melanoma
SK-OV-3 ovarian = test system: SK-OV-3 ovarian
SNB-19 CNS = test system: SNB-19 CNS
MDA-MB-468 breast = test system: MDA-MB-468 breast
LOX IMVI melanoma = test system: LOX IMVI melanoma
SK-MEL-28 melanoma = test system: SK-MEL-28 melanoma
CAKI-1 renal = test system: CAKI-1 renal
SK-MEL-2 melanoma = test system: SK-MEL-2 melanoma
SW-620 colon = test system: SW-620 colon
PC-3 prostate = test system: PC-3 prostate
UACC-62 melanoma = test system: UACC-62 melanoma
HS 578T breast = test system: HS 578T breast
HOP-92 NSCLC = test system: HOP-92 NSCLC
SF-539 CNS = test system: SF-539 CNS
NCI-H226 lung = test system: NCI-H226 lung
IGROV1 ovarian = test system: IGROV1 ovarian
MDA-MB-435 = test system: MDA-MB-435
A498 renal = test system: A498 renal
HCT-15 colon = test system: HCT-15 colon
MALME-3M melanoma = test system: MALME-3M melanoma
OVCAR-3 ovarian = test system: OVCAR-3 ovarian
HT29 colon = test system: HT29 colon
TK-10 renal = test system: TK-10 renal
CCRF-CEM leukemia = test system: CCRF-CEM leukemia
HL-60(TB) leukemia = test system: HL-60(TB) leukemia
NCI-H23 lung = test system: NCI-H23 lung
NCI/ADR-RES ovarian = test system: NCI/ADR-RES ovarian

CC(=O)Nc1cccc(-c2nc3cc(-c4ccc(O)cc4)ccc3n2C)c1
GI50 (SR leukemia): 12.3 µM
TGI (SR leukemia): > 100 µM
GI50 (DU-145 prostate): 16.6 µM
TGI (DU-145 prostate): 65.3 µM
GI50 (RXF 393 renal): 11.4 µM
TGI (RXF 393 renal): 39.5 µM
GI50 (EKVX NSCLC): 13.8 µM
TGI (EKVX NSCLC): 51 µM
GI50 (OVCAR-8 ovarian): 10.8 µM
TGI (OVCAR-8 ovarian): 26.9 µM
GI50 (786-0 renal): 28.2 µM
TGI (786-0 renal): > 100 µM
GI50 (COLO 205 colon): 17.3 µM
TGI (COLO 205 colon): 34.2 µM
GI50 (UO-31 renal): 10.8 µM
TGI (UO-31 renal): 31.8 µM
GI50 (NCI-H460 lung): 11.6 µM
TGI (NCI-H460 lung): 36.4 µM
GI50 (OVCAR-5 ovarian): 25.8 µM
TGI (OVCAR-5 ovarian): 93.5 µM
GI50 (OVCAR-4 ovarian): 3.64 µM
TGI (OVCAR-4 ovarian): 27.2 µM
GI50 (HOP-62 NSCLC): 28.1 µM
TGI (HOP-62 NSCLC): 65.4 µM
GI50 (SK-MEL-5 melanoma): 3.24 µM
TGI (SK-MEL-5 melanoma): 11.6 µM
GI50 (MOLT-4 leukemia): 4.6 µM
TGI (MOLT-4 leukemia): 29.5 µM
GI50 (SN12C renal): 17.8 µM
TGI (SN12C renal): > 100 µM
GI50 (HCC-2998 colon): 17.1 µM
TGI (HCC-2998 colon): 74 µM
GI50 (SF-268 CNS): 17.7 µM
TGI (SF-268 CNS): > 100 µM
GI50 (K-562 leukemia): 8.91 µM
TGI (K-562 leukemia): > 100 µM
GI50 (U251 CNS): 18.3 µM
TGI (U251 CNS): > 100 µM
GI50 (M14 melanoma): 12.9 µM
TGI (M14 melanoma): 26.8 µM
GI50 (A549 NSCLC): 12.1 µM
TGI (A549 NSCLC): 60.1 µM
GI50 (RPMI-8226 leukemia): 4.7 µM
TGI (RPMI-8226 leukemia): 23.8 µM
GI50 (T-47D breast): 2.91 µM
TGI (T-47D breast): 11.9 µM
GI50 (HCT-116 colon): 15.1 µM
TGI (HCT-116 colon): 50.9 µM
GI50 (SF-295 CNS): 10.1 µM
TGI (SF-295 CNS): 36.2 µM
GI50 (SNB-75 CNS): 9.43 µM
TGI (SNB-75 CNS): 46.3 µM
GI50 (MDA-MB-231 breast): 23.7 µM
TGI (MDA-MB-231 breast): > 100 µM
GI50 (NCI-H522 lung): 5.16 µM
TGI (NCI-H522 lung): 20.7 µM
GI50 (ACHN renal): 5.17 µM
TGI (ACHN renal): 47.7 µM
GI50 (MCF7 breast): 4.38 µM
TGI (MCF7 breast): 22.2 µM
GI50 (KM12 colon): 12.8 µM
TGI (KM12 colon): 29.7 µM
GI50 (BT-549 breast): 5.07 µM
TGI (BT-549 breast): 17.7 µM
GI50 (UACC-257 melanoma): 3.76 µM
TGI (UACC-257 melanoma): 15.5 µM
GI50 (SK-OV-3 ovarian): 25.8 µM
TGI (SK-OV-3 ovarian): 96.5 µM
GI50 (SNB-19 CNS): 27.2 µM
TGI (SNB-19 CNS): > 100 µM
GI50 (MDA-MB-468 breast): 1.83 µM
TGI (MDA-MB-468 breast): 7.12 µM
GI50 (LOX IMVI melanoma): 14.3 µM
TGI (LOX IMVI melanoma): 31.7 µM
GI50 (SK-MEL-28 melanoma): 11.4 µM
TGI (SK-MEL-28 melanoma): 29.6 µM
GI50 (CAKI-1 renal): 11.5 µM
TGI (CAKI-1 renal): 49.2 µM
GI50 (SK-MEL-2 melanoma): 8.73 µM
TGI (SK-MEL-2 melanoma): 26.1 µM
GI50 (SW-620 colon): 16.8 µM
TGI (SW-620 colon): 42.9 µM
GI50 (PC-3 prostate): 13.7 µM
TGI (PC-3 prostate): 65 µM
GI50 (UACC-62 melanoma): 7.42 µM
TGI (UACC-62 melanoma): 24.9 µM
GI50 (HS 578T breast): 19.7 µM
TGI (HS 578T breast): > 100 µM
GI50 (HOP-92 NSCLC): 11.7 µM
TGI (HOP-92 NSCLC): > 100 µM
GI50 (SF-539 CNS): 16.1 µM
TGI (SF-539 CNS): 62.8 µM
GI50 (NCI-H226 lung): 7.76 µM
TGI (NCI-H226 lung): 51.7 µM
GI50 (IGROV1 ovarian): 14.4 µM
TGI (IGROV1 ovarian): 46.6 µM
GI50 (MDA-MB-435): 5.29 µM
TGI (MDA-MB-435): 19.3 µM
GI50 (A498 renal): 19.2 µM
TGI (A498 renal): 67.6 µM
GI50 (HCT-15 colon): 18.8 µM
TGI (HCT-15 colon): 68.8 µM
GI50 (MALME-3M melanoma): 5.01 µM
TGI (MALME-3M melanoma): 18.6 µM
GI50 (OVCAR-3 ovarian): 16.2 µM
TGI (OVCAR-3 ovarian): 63.5 µM
GI50 (HT29 colon): 24 µM
TGI (HT29 colon): > 100 µM
GI50 (TK-10 renal): 19.4 µM
TGI (TK-10 renal): 81.5 µM
GI50 (CCRF-CEM leukemia): 6.06 µM
TGI (CCRF-CEM leukemia): 50 µM
GI50 (HL-60(TB) leukemia): 10.6 µM
TGI (HL-60(TB) leukemia): 39.7 µM
GI50 (NCI-H23 lung): 10.6 µM
TGI (NCI-H23 lung): 31 µM
GI50 (NCI/ADR-RES ovarian): 21 µM
TGI (NCI/ADR-RES ovarian): 63.5 µM
